Literature values as cited in PMC11040670, “Mechanistic and Kinetic Insights into Cellular Uptake of Biomimetic Dinitrosyl Iron Complexes and Intracellular Delivery of NO for Activation of Cytoprotective HO-1” (JACS Au, 2024).

What was measured:
[1] = parameters: method as in doi:10.1021/j100627a005; conditions: cited from earlier work
[2] = tested on: Prx 1; parameters: method as in earlier work; conditions: generated [(NO)2Fe(SGS)(SCys-Prx1)]n–, phosphate buffer (pH 7.4), normoxia; ref SI 4; cited from earlier work

Molecule	pKa for the carboxylic acid group [1]	k, second-order rate constant [2]
O=C(O)CCS [HSCH2CH2COOH]	4.3	
[(NO)2Fe(SGS)2]n– and [(NO)2Fe(-SGS)2Fe(NO)2]m– [DNDGIC]		7.0 ± 0.4 M⁻¹ s⁻¹
